Legend:
[1] = test system: H3K9Me2 on the promoter of c-Myc gene; test: ChIP assay followed by qPCR; assay type: cell-based
Text: CBA-1 increased repressive histone methylation on Wnt target genes. The present inventors reported that mutations in APC or β-catenin N-terminal phosphorylation sites prevented β-catenin degradation in CRC cells. […] Because CBA-1 inhibited Wnt signaling in CRC cells, it was reasonable to assume that it inhibited Wnt signaling downstream of β-catenin, most likely by blocking β-catenin activity in the nucleus. Consequently, the present inventors hypothesized that CBA-1 inhibited Wnt signaling epigenetically by altering chromatin remodeling, and they probed the effects of CBA-1 on histone methylation in CRC cells.

[2] = test system: CRC cells; test: CRC cell proliferation; assay type: cell-based
Text: KDM3A is a Jumonji domain-containing demethylase that regulates the demethylation of histone H3's lysine 9 (H3K9Me^2).

[3] = test system: Wnt signaling; test: Zebrafish Wnt signaling models; assay type: in vivo
Text: FIGS. 1A-F show a KDM3A inhibitor, called “58B1,” that inhibited Wnt signaling in vitro and in vivo. (A) Docking of 58B1 to the Jumonji domain. (B) 58B1 inhibited KDM3A enzymatic activity in vitro. (C) KDM3A was overexpressed in CRC. (D) 58B1 increased repressor markers, H3K9Me^2 and K3K9Me^3. (E) 58B1 inhibited Wnt target genes in CRC cells. (F) 58B1 inhibited Wnt signaling in a transgenic zebrafish model. In this model, GFP was control by a Wnt-responsive promoter. In the control fish, GFP was expressed in the tail, where has higher levels on Wnt signaling. 58B1 treatment abolished GFP expression in the tail.
CBA-1 inhibited Wnt signaling in Zebrafish models. Zebrafish provide a well-established in vivo model to study Wnt signaling. Wnt signaling is active in the tail of the larvae during development (FIG. 4), and CBA-1 inhibited Wnt signaling in the tail. […] To rule out the possibility that CBA-1 inhibits the Wnt-mediated phenotype through nonspecific or even toxic effects, an eye-rescue experiment was performed.

[4] = test system: DLD1; test: Colon cancer cell proliferation; assay type: cell-based
Method: FIGS. 5A-B show an image and graph illustrating validation of CBA-1. (A) CBA-1 repressed Wnt targets in LS174T CRC cells. (B) CBA-1 inhibited CRC cell proliferation (5d, Vi-Cell viability assay).
The effects of these compounds on proliferation of colon cancer cell line LS174T and DLD1 were analyzed.
(§1) Identification of a CBA-1 as a novel Wnt inhibitor. The present inventors routinely use TOPFlash reporter assay for Wnt inhibitor screening. To mimic the constitutively active Wnt signaling found in CRC cells, Wnt signaling was activated by inhibiting GSK3 and stabilizing β-catenin. From screening in house small-molecule libraries, CBA-1 (FIG. 4) was identified that inhibited Wnt signaling in TOPFlash reporter assay. To validate the screening results, CBA-1 was tested in CRC cells.

[5] = test system: Wnt target genes in LS174T colon cancer cells; test: Western blotting of Wnt target genes in colon cancer cells; assay type: cell-based
Text: The activities of 58B1 were validated by western blotting.
as §1

## CCCC(=O)NC(c1ccc(N(CC)CC)cc1)c1cc(Cl)c2cccnc2c1O (centres unmarked) [58B1]
[1]; ChIP, qPCR
  levels of H3K9Me2 on the promoter of c-Myc gene: increased
[1]; expected
  active markers H3K9Ac and H3K4Me^3 on the promoter of Wnt target genes in CRC cells: decrease
  repressive marker H3K9Me^2 on the promoter of Wnt target genes in CRC cells: increase
[2]; at 100 nM concentration
  CRC cell proliferation: inhibited
[2]; expected
  sensitivity of CRC cells compared with normal colon cells: more sensitive
[3]; transgenic zebrafish model
  GFP expression in the tail (Wnt-responsive promoter): abolished
[3]; zebrafish
  Wnt-dependent tail regeneration: reduced
  toxicity in eye-rescue experiment: without obvious toxicity effects
[3]; zebrafish larvae
  Wnt signaling in the tail: inhibited
[3]; zebrafish, dose-responsive manner
  Wnt-induced eye defects (eye-rescue experiment): rescued
[4]; DLD1 (APC mutation), 5d, Vi-Cell viability assay
  proliferation of CRC cell lines: inhibited proliferation
[4]; DLD1, at low nanomolar concentrations
  proliferation of colon cancer cell line: strongly inhibited
[5]; 5 μM, LS174T, western blotting
  expression of Wnt target genes: strongly inhibited
[5]; CRC cells (LS174T), concentration not given
  expression of Wnt target genes: repressed
